System: PC3 cells
Test: NAMPT Cell Proliferation Assay
Assay type: cell-based
Details: Homo sapiens, PC-3, 120 h, 5 days incubation, cell viability by Cell Titer Glo
Summary of the method: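 Five-day CellTiter-Glo viability readout in PC3 cells grown in RPMI/10% heat-inactivated FBS. Compounds added after overnight attachment as a 10-fold dilution series, […]. Percent inhibition fitted to sigmoidal dose-response to derive IC50.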

SMILES	IC50 [nM]
O=C(Nc1ccc(C2CCN(C(=O)c3cc(Cl)cc(Cl)c3)CC2)cc1)C1CN(c2cccnn2)C1 [Example 365, N-{4-[1-(3,5-dichlorobenzoyl)piperidin-4-yl]phenyl}-1-(pyridazin-3-yl)azetidine-3-carboxamide]	7.84
O=C(Nc1ccc(C2CCN(C(=O)Cc3ccccc3F)CC2)cc1)C1CN(c2cccnn2)C1 [Example 366, N-(4-{1-[(2-fluorophenyl)acetyl]piperidin-4-yl}phenyl)-1-(pyridazin-3-yl)azetidine-3-carboxamide]	6.57
O=C(Nc1ccc(C2CCN(C(=O)Cc3cccc(F)c3)CC2)cc1)C1CN(c2cccnn2)C1 [Example 367, N-(4-{1-[(3-fluorophenyl)acetyl]piperidin-4-yl}phenyl)-1-(pyridazin-3-yl)azetidine-3-carboxamide]	6.38
O=C(Nc1ccc(C2CCN(C(=O)Cc3ccc(F)cc3)CC2)cc1)C1CN(c2cccnn2)C1 [Example 368, N-(4-{1-[(4-fluorophenyl)acetyl]piperidin-4-yl}phenyl)-1-(pyridazin-3-yl)azetidine-3-carboxamide]	7.7
O=C(Nc1ccc(C2CCN(C(=O)Cc3ccc(Cl)cc3)CC2)cc1)C1CN(c2cccnn2)C1 [Example 370, N-(4-{1-[(4-chlorophenyl)acetyl]piperidin-4-yl}phenyl)-1-(pyridazin-3-yl)azetidine-3-carboxamide]	8.79
O=C(Nc1ccc(C2CCN(C(=O)Cc3ccc(C(F)(F)F)cc3)CC2)cc1)C1CN(c2cccnn2)C1 [Example 371, 1-(pyridazin-3-yl)-N-[4-(1-{[4-(trifluoromethyl)phenyl]acetyl}piperidin-4-yl)phenyl]azetidine-3-carboxamide]	8.94
Cc1cc(C)cc(CC(=O)N2CCC(c3ccc(NC(=O)C4CN(c5cccnn5)C4)cc3)CC2)c1 [Example 372, N-(4-{1-[(3,5-dimethylphenyl)acetyl]piperidin-4-yl}phenyl)-1-(pyridazin-3-yl)azetidine-3-carboxamide]	7.06
O=C(Nc1ccc(C2CCN(C(=O)Cc3cc(F)ccc3F)CC2)cc1)C1CN(c2cccnn2)C1 [Example 373, N-(4-{1-[(2,5-difluorophenyl)acetyl]piperidin-4-yl}phenyl)-1-(pyridazin-3-yl)azetidine-3-carboxamide]	5.95
O=C(Nc1ccc(C2CCN(C(=O)Cc3ccc(Cl)c(Cl)c3)CC2)cc1)C1CN(c2cccnn2)C1 [Example 374, N-(4-{1-[(3,4-dichlorophenyl)acetyl]piperidin-4-yl}phenyl)-1-(pyridazin-3-yl)azetidine-3-carboxamide]	6.32
Cc1cnc(C(=O)N2CCC(c3ccc(NC(=O)C4CN(c5cccnn5)C4)cc3)CC2)cn1 [Example 378, N-(4-{1-[(5-methylpyrazin-2-yl)carbonyl]piperidin-4-yl}phenyl)-1-(pyridazin-3-yl)azetidine-3-carboxamide]	7.09
CCOCCC(=O)N1CCC(c2ccc(NC(=O)C3CN(c4cccnn4)C3)cc2)CC1 [Example 380, N-{4-[1-(3-ethoxypropanoyl)piperidin-4-yl]phenyl}-1-(pyridazin-3-yl)azetidine-3-carboxamide]	7.57
O=C(Nc1ccc(C2CCN(C(=O)CSc3ncccn3)CC2)cc1)C1CN(c2cccnn2)C1 [Example 382, 1-(pyridazin-3-yl)-N-(4-{1-[(pyrimidin-2-ylsulfanyl)acetyl]piperidin-4-yl}phenyl)azetidine-3-carboxamide]	8.99
CC(=O)N1CCC(C(=O)N2CCC(c3ccc(NC(=O)C4CN(c5cccnn5)C4)cc3)CC2)CC1 [Example 383, N-(4-{1-[(1-acetylpiperidin-4-yl)carbonyl]piperidin-4-yl}phenyl)-1-(pyridazin-3-yl)azetidine-3-carboxamide]	62.7
O=C(Nc1ccc(C2CCN(C(=O)Cc3cc(F)cc(F)c3)CC2)cc1)C1CN(c2cccnn2)C1 [Example 384, N-(4-{1-[(3,5-difluorophenyl)acetyl]piperidin-4-yl}phenyl)-1-(pyridazin-3-yl)azetidine-3-carboxamide]	8.27
CC(=O)N[C@@H](CC(C)C)C(=O)N1CCC(c2ccc(NC(=O)C3CN(c4cccnn4)C3)cc2)CC1 [Example 385, N-{4-[1-(N-acetyl-L-leucyl)piperidin-4-yl]phenyl}-1-(pyridazin-3-yl)azetidine-3-carboxamide]	23.2
O=C(Nc1ccc(C2CCN(C(=O)C(c3ccccc3)c3ccccc3)CC2)cc1)C1CN(c2cccnn2)C1 [Example 386, N-{4-[1-(diphenylacetyl)piperidin-4-yl]phenyl}-1-(pyridazin-3-yl)azetidine-3-carboxamide]	3.18
Cc1ccc(C(=O)N2CCC(c3ccc(NC(=O)C4CN(c5cccnn5)C4)cc3)CC2)cc1F [Example 389, N-{4-[1-(3-fluoro-4-methylbenzoyl)piperidin-4-yl]phenyl}-1-(pyridazin-3-yl)azetidine-3-carboxamide]	7.17
O=C(Nc1ccc(C2CCN(C(=O)c3ccc(F)cc3F)CC2)cc1)C1CN(c2cccnn2)C1 [Example 391, N-{4-[1-(2,4-difluorobenzoyl)piperidin-4-yl]phenyl}-1-(pyridazin-3-yl)azetidine-3-carboxamide]	5.99
CC(C)c1ccc(C(=O)N2CCC(c3ccc(NC(=O)C4CN(c5cccnn5)C4)cc3)CC2)cc1 [Example 392, N-(4-{1-[4-(propan-2-yl)benzoyl]piperidin-4-yl}phenyl)-1-(pyridazin-3-yl)azetidine-3-carboxamide]	3.54
CC(C)(C)c1ccc(C(=O)N2CCC(c3ccc(NC(=O)C4CN(c5cccnn5)C4)cc3)CC2)cc1 [Example 393, N-{4-[1-(4-tert-butylbenzoyl)piperidin-4-yl]phenyl}-1-(pyridazin-3-yl)azetidine-3-carboxamide]	3.72
O=C(Nc1ccc(O[C@@H]2CCN(C(=O)c3ccc(F)cc3)C2)cc1)C1CN(c2ccnnc2)C1 [Example 396, N-(4-{[(3R)-1-(4-fluorobenzoyl)pyrrolidin-3-yl]oxy}phenyl)-1-(pyridazin-4-yl)azetidine-3-carboxamide]	68.5
O=C(Nc1ccc(C2CCN(C(=O)CC3CCCC3)CC2)cc1)C1CN(c2cccnn2)C1 [Example 397, N-{4-[1-(cyclopentylacetyl)piperidin-4-yl]phenyl}-1-(pyridazin-3-yl)azetidine-3-carboxamide]	3.35
Cc1ccc(OCC(=O)N2CCC(c3ccc(NC(=O)C4CN(c5cccnn5)C4)cc3)CC2)cc1 [Example 398, N-(4-{1-[(4-methylphenoxy)acetyl]piperidin-4-yl}phenyl)-1-(pyridazin-3-yl)azetidine-3-carboxamide]	8.19
CC[C@H](C(=O)N1CCC(c2ccc(NC(=O)C3CN(c4cccnn4)C3)cc2)CC1)c1ccccc1 [Example 399, N-(4-{1-[(2S)-2-phenylbutanoyl]piperidin-4-yl}phenyl)-1-(pyridazin-3-yl)azetidine-3-carboxamide]	6.35

The next compounds have a lower IC50 than those just listed; values first:

IC50 [nM]	SMILES
2.14	O=C(Nc1ccc(C2CCN(C(=O)Cc3ccccc3Cl)CC2)cc1)C1CN(c2cccnn2)C1 [Example 369, N-(4-{1-[(2-chlorophenyl)acetyl]piperidin-4-yl}phenyl)-1-(pyridazin-3-yl)azetidine-3-carboxamide]
0.87	O=C(Nc1ccc(C2CCN(C(=O)c3ccoc3)CC2)cc1)C1CN(c2cccnn2)C1 [Example 375, N-{4-[1-(furan-3-ylcarbonyl)piperidin-4-yl]phenyl}-1-(pyridazin-3-yl)azetidine-3-carboxamide]
0.62	O=C(Nc1ccc(C2CCN(C(=O)c3cccs3)CC2)cc1)C1CN(c2cccnn2)C1 [Example 376, 1-(pyridazin-3-yl)-N-{4-[1-(thiophen-2-ylcarbonyl)piperidin-4-yl]phenyl}azetidine-3-carboxamide]
2.13	Cc1ccc(C(=O)N2CCC(c3ccc(NC(=O)C4CN(c5cccnn5)C4)cc3)CC2)s1 [Example 377, N-(4-{1-[(5-methylthiophen-2-yl)carbonyl]piperidin-4-yl}phenyl)-1-(pyridazin-3-yl)azetidine-3-carboxamide]
1.07	CC1(C(=O)N2CCC(c3ccc(NC(=O)C4CN(c5cccnn5)C4)cc3)CC2)CC1 [Example 379, N-(4-{1-[(1-methylcyclopropyl)carbonyl]piperidin-4-yl}phenyl)-1-(pyridazin-3-yl)azetidine-3-carboxamide]
1.87	O=C(Nc1ccc(C2CCN(C(=O)C3(c4ccccc4)CC3)CC2)cc1)C1CN(c2cccnn2)C1 [Example 381, N-(4-{1-[(1-phenylcyclopropyl)carbonyl]piperidin-4-yl}phenyl)-1-(pyridazin-3-yl)azetidine-3-carboxamide]
2.2	Cc1c(F)cccc1C(=O)N1CCC(c2ccc(NC(=O)C3CN(c4cccnn4)C3)cc2)CC1 [Example 387, N-{4-[1-(3-fluoro-2-methylbenzoyl)piperidin-4-yl]phenyl}-1-(pyridazin-3-yl)azetidine-3-carboxamide]
0.88	Cc1ccc(F)cc1C(=O)N1CCC(c2ccc(NC(=O)C3CN(c4cccnn4)C3)cc2)CC1 [Example 388, N-{4-[1-(5-fluoro-2-methylbenzoyl)piperidin-4-yl]phenyl}-1-(pyridazin-3-yl)azetidine-3-carboxamide]
1.5	O=C(Nc1ccc(C2CCN(C(=O)c3cccc(F)c3F)CC2)cc1)C1CN(c2cccnn2)C1 [Example 390, N-{4-[1-(2,3-difluorobenzoyl)piperidin-4-yl]phenyl}-1-(pyridazin-3-yl)azetidine-3-carboxamide]
1.99	O=C(Nc1ccc(C2CCN(C(=O)c3cc(C(F)(F)F)ccc3F)CC2)cc1)C1CN(c2cccnn2)C1 [Example 394, N-(4-{1-[2-fluoro-5-(trifluoromethyl)benzoyl]piperidin-4-yl}phenyl)-1-(pyridazin-3-yl)azetidine-3-carboxamide]
2.14	O=C(Nc1ccc(C2CCN(C(=O)c3cc(C(F)(F)F)ccc3Cl)CC2)cc1)C1CN(c2cccnn2)C1 [Example 395, N-(4-{1-[2-chloro-5-(trifluoromethyl)benzoyl]piperidin-4-yl}phenyl)-1-(pyridazin-3-yl)azetidine-3-carboxamide]
